Assay results as given in ChEMBL document CHEMBL1201862, “PubChem BioAssay data set” (2004).
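Test compounds were applied to cells in 96-well plates for 48 hours at 5 doses. Here, GI50 denotes the concentration required for 50% inhibition of growth.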 The source made the active and inactive calls. Cut-off read from the data, not from the text of the source: active = GI50 up to about 1.1 µM and inactive = higher.

How the values were obtained:
Experiment in all cases: NCI-60 cell line screen, 48 h
M14 = system: M14
IGROV-1 = system: IGROV-1
NCI-H226 = system: NCI-H226
ACHN = system: ACHN
786-0 = system: 786-0
HOP-62 = system: HOP-62
RPMI-8226 = system: RPMI-8226
HOP-92 = system: HOP-92
DU-145 = system: DU-145
NCI-H23 = system: NCI-H23
SW-620 = system: SW-620
OVCAR-4 = system: OVCAR-4
EKVX = system: EKVX
SK-MEL-2 = system: SK-MEL-2
SR = system: SR
OVCAR-5 = system: OVCAR-5
RXF 393 = system: RXF 393
SNB-75 = system: SNB-75
MCF7 = system: MCF7
HCC 2998 = system: HCC 2998

SMILES | GI50 (M14) | GI50 (IGROV-1) | GI50 (NCI-H226) | GI50 (ACHN) | GI50 (786-0) | GI50 (HOP-62) | GI50 (RPMI-8226) | GI50 (HOP-92) | GI50 (DU-145) | GI50 (NCI-H23) | GI50 (SW-620) | GI50 (OVCAR-4) | GI50 (EKVX) | GI50 (SK-MEL-2) | GI50 (SR) | GI50 (OVCAR-5) | GI50 (RXF 393) | GI50 (SNB-75) | GI50 (MCF7) | GI50 (HCC 2998)
O=c1[nH]ncc2[nH]c3c(c12)CCc1ccccc1-3 | 44.3 µM (inactive) | 14.7 µM (inactive) | 13.5 µM (inactive) | 32.1 µM (inactive) | 36.1 µM (inactive) | 45.9 µM (inactive) | 30.1 µM (inactive) | 30.9 µM (inactive) | 38 µM (inactive) | 39.4 µM (inactive) | 34.4 µM (inactive) | 32.1 µM (inactive) | 2.22 µM (inactive) | 23 µM (inactive) | 19.1 µM (inactive) | 44.3 µM (inactive) | 16.6 µM (inactive) | 13 µM (inactive) | – | –
Cn1c(=O)c2ccccc2c2ccccc21 | 49.7 µM (inactive) | – | 32.3 µM (inactive) | 33 µM (inactive) | 45.6 µM (inactive) | 65.8 µM (inactive) | 37.8 µM (inactive) | 48.3 µM (inactive) | 47.4 µM (inactive) | 69.7 µM (inactive) | 45.2 µM (inactive) | 66.7 µM (inactive) | 18.8 µM (inactive) | 89.1 µM (inactive) | – | – | 40.6 µM (inactive) | 44.9 µM (inactive) | 31.5 µM (inactive) | 56.8 µM (inactive)
CC1=C(C(=O)OCCc2ccc([N+](=O)[O-])cc2)C(c2ccccc2C(F)(F)F)C(C(=O)OC(C)C)=C(C)N1 (stereo not drawn) | 2.41 µM (inactive) | 4.88 µM (inactive) | 3.15 µM (inactive) | 3.06 µM (inactive) | 4.16 µM (inactive) | 3.51 µM (inactive) | 3.1 µM (inactive) | – | 9.16 µM (inactive) | 3.7 µM (inactive) | 3.68 µM (inactive) | 38 µM (inactive) | 2.05 µM (inactive) | 2.64 µM (inactive) | 3.11 µM (inactive) | 16.1 µM (inactive) | 1.87 µM (inactive) | 4.04 µM (inactive) | 3.36 µM (inactive) | 4.92 µM (inactive)
CN1C(=O)C(c2c[nH]c3ccccc23)N(C)C(=O)C1c1c[nH]c2ccccc12 (stereo not drawn) | > 100 µM (inactive) | > 100 µM (inactive) | – | 72.8 µM (inactive) | 53.2 µM (inactive) | 63.4 µM (inactive) | – | 37.2 µM (inactive) | > 100 µM (inactive) | > 100 µM (inactive) | > 100 µM (inactive) | > 100 µM (inactive) | > 100 µM (inactive) | – | – | > 100 µM (inactive) | 46.9 µM (inactive) | 33.8 µM (inactive) | > 100 µM (inactive) | > 100 µM (inactive)
COC(=O)CC1C(COC(C)=O)OC(n2cc(C)c(=O)[nH]c2=O)C1OC(C)=O (stereo not drawn) | > 100 µM (inactive) | > 100 µM (inactive) | > 100 µM (inactive) | > 100 µM (inactive) | > 100 µM (inactive) | > 100 µM (inactive) | > 100 µM (inactive) | > 100 µM (inactive) | > 100 µM (inactive) | > 100 µM (inactive) | > 100 µM (inactive) | > 100 µM (inactive) | > 100 µM (inactive) | > 100 µM (inactive) | – | > 100 µM (inactive) | > 100 µM (inactive) | > 100 µM (inactive) | > 100 µM (inactive) | > 100 µM (inactive)
CCN(CC)C(=C(C(Cl)=C(Cl)Cl)[N+](=O)[O-])N(CC)CC | 92 µM (inactive) | 47.1 µM (inactive) | > 100 µM (inactive) | 72.6 µM (inactive) | > 100 µM (inactive) | > 100 µM (inactive) | 42.3 µM (inactive) | – | 62.4 µM (inactive) | 24.1 µM (inactive) | 85.9 µM (inactive) | > 100 µM (inactive) | > 100 µM (inactive) | – | 33.7 µM (inactive) | > 100 µM (inactive) | 17.3 µM (inactive) | 22.3 µM (inactive) | > 100 µM (inactive) | > 100 µM (inactive)
Oc1c(Cl)c(Cl)c(O)c(CCNc2ccc3ncccc3c2)c1Cl | 11.5 µM (inactive) | 5 µM (inactive) | – | 13.7 µM (inactive) | 16.5 µM (inactive) | 12.5 µM (inactive) | – | 30.5 µM (inactive) | 21.5 µM (inactive) | 10.2 µM (inactive) | 4.63 µM (inactive) | 79.6 µM (inactive) | 16.7 µM (inactive) | 6.32 µM (inactive) | 3.14 µM (inactive) | 20.9 µM (inactive) | 18.9 µM (inactive) | 16.1 µM (inactive) | 4.76 µM (inactive) | 12.9 µM (inactive)
C[N+](C)(C)CCC(=O)N1C/C(=C\c2ccccc2)C(=O)/C(=C/c2ccccc2)C1 | 2.72 µM (inactive) | 5.12 µM (inactive) | 10 µM (inactive) | 6.3 µM (inactive) | 2.38 µM (inactive) | 18.1 µM (inactive) | 0.385 µM (active) | 20.6 µM (inactive) | 16.8 µM (inactive) | 10.4 µM (inactive) | 0.904 µM (active) | 3.37 µM (inactive) | 21.4 µM (inactive) | 15.8 µM (inactive) | – | 16.9 µM (inactive) | 11.8 µM (inactive) | 7.83 µM (inactive) | 1.45 µM (inactive) | 3.47 µM (inactive)
N#CCOc1cccc(C2(N3CC=CCC3)CCCCC2)c1 | > 100 µM (inactive) | > 100 µM (inactive) | > 100 µM (inactive) | > 100 µM (inactive) | > 100 µM (inactive) | > 100 µM (inactive) | 77.6 µM (inactive) | – | > 100 µM (inactive) | > 100 µM (inactive) | 94 µM (inactive) | > 100 µM (inactive) | > 100 µM (inactive) | > 100 µM (inactive) | > 100 µM (inactive) | > 100 µM (inactive) | – | – | > 100 µM (inactive) | –
Clc1ccc(C(OCn2ccnc2)c2nc3ccccc3[nH]2)c(Cl)c1 (stereo not drawn) | 54.2 µM (inactive) | 43.3 µM (inactive) | – | 26.4 µM (inactive) | 39 µM (inactive) | 92.9 µM (inactive) | 24.6 µM (inactive) | 0.312 µM (active) | 64.4 µM (inactive) | 32.2 µM (inactive) | 26.9 µM (inactive) | 16.6 µM (inactive) | 66.2 µM (inactive) | 42.7 µM (inactive) | > 10 µM (inactive) | > 100 µM (inactive) | – | 28.9 µM (inactive) | 38.2 µM (inactive) | 45.5 µM (inactive)
C[n+]1ccccc1/C=C/c1ccc2c(c1)OCO2 | > 10 µM (inactive) | > 10 µM (inactive) | > 10 µM (inactive) | > 10 µM (inactive) | > 10 µM (inactive) | > 10 µM (inactive) | > 10 µM (inactive) | – | > 10 µM (inactive) | > 10 µM (inactive) | > 10 µM (inactive) | > 10 µM (inactive) | > 10 µM (inactive) | > 10 µM (inactive) | > 10 µM (inactive) | > 10 µM (inactive) | > 10 µM (inactive) | – | > 10 µM (inactive) | > 10 µM (inactive)
Cc1ccccc1Nc1cn(CCOc2ccccc2)c(=O)n(CCOc2ccccc2)c1=O | > 100 µM (inactive) | > 100 µM (inactive) | – | > 100 µM (inactive) | > 100 µM (inactive) | 24.6 µM (inactive) | > 100 µM (inactive) | 19 µM (inactive) | > 100 µM (inactive) | > 100 µM (inactive) | > 100 µM (inactive) | 58.7 µM (inactive) | > 100 µM (inactive) | – | – | > 100 µM (inactive) | > 100 µM (inactive) | – | 90.8 µM (inactive) | > 100 µM (inactive)
CC(=O)OCC1OC(OCC2OC(N3C(=S)N[C@H]([C@@H](O)[C@H](O)[C@H](O)CO)[C@H]3O)C(OC(C)=O)C(OC(C)=O)C2OC(C)=O)C(OC(C)=O)C(OC(C)=O)C1OC(C)=O (stereo partly drawn) | > 100 µM (inactive) | – | – | > 100 µM (inactive) | > 100 µM (inactive) | > 100 µM (inactive) | 79.8 µM (inactive) | 33.5 µM (inactive) | > 100 µM (inactive) | > 100 µM (inactive) | > 100 µM (inactive) | > 100 µM (inactive) | – | > 100 µM (inactive) | > 100 µM (inactive) | > 100 µM (inactive) | > 100 µM (inactive) | – | > 100 µM (inactive) | > 100 µM (inactive)
CC[C@H](C)[C@H](NC(=O)[C@@]1(O)[C@H](O)[C@]2(CC)C=CCN3CC[C@@]4(c5cc(Br)c(OC)cc5N(C)[C@@H]14)[C@@H]32)C(=O)OC | 22.1 µM (inactive) | 26.3 µM (inactive) | – | 24.8 µM (inactive) | 63.5 µM (inactive) | 32.2 µM (inactive) | 14.2 µM (inactive) | – | > 100 µM (inactive) | 86.1 µM (inactive) | 29 µM (inactive) | 4.84 µM (inactive) | 40.2 µM (inactive) | 26.2 µM (inactive) | 27.2 µM (inactive) | > 100 µM (inactive) | 45.5 µM (inactive) | – | 35.6 µM (inactive) | 23.8 µM (inactive)
O=S(=O)(N/C(=N\O)Nc1ccc(Cl)cc1)c1ccc(S(=O)(=O)c2ccccc2)s1 | 18.5 µM (inactive) | 15.2 µM (inactive) | 14.6 µM (inactive) | 20 µM (inactive) | 29.7 µM (inactive) | 26.5 µM (inactive) | 13.6 µM (inactive) | 6.92 µM (inactive) | 19.5 µM (inactive) | 17 µM (inactive) | 30.1 µM (inactive) | 14.1 µM (inactive) | 18.8 µM (inactive) | 17.9 µM (inactive) | – | 24.3 µM (inactive) | 24 µM (inactive) | – | 27 µM (inactive) | 14.3 µM (inactive)
